Patent publication US5410018A, “Bombesin-related peptides” (Oregon Regional Primate Research Center, priority 1994, dated 1995)
Non-standard residues stand in square brackets, D forms with d. Residues, ends and D or L forms follow the SMILES beside them. No end group written: not given here. pGlu = O=C1CC[C@@H](C(=O)O)N1

Columns and labels:
NMB receptor = NMB receptor (Rattus norvegicus, UniProt P24053); experiment: biochemical
Procedure: Membranes of the NMB receptor used in the binding assay were obtained by homogenizing rat olfactory bulb tissue (Polytron, setting 6, 15 sec) in ice-cold 50 mM Tris-HC1 (Buffer A) and centrifuging twice as 39,000 x g (10 min), with an intermediate resuspension in fresh buffer. The final pellets were resuspended in the 50 mM Tris-HCl, containing 0.1 mg/ml bacitracin, and 0.1% BSA (Buffer B), and held on ice for the receptor binding assay. For the assay, aliquots (0.4 ml) were incubated with 0.05 ml [^125 I] NMB (-2200 Ci/mmol, New England Nuclear) and Buffer B, with and without 0.05 ml of unlabeled competing peptides. The experiment was performed with BIM-26336, […], GRP, and NMB as competing peptides.
After a 30 min incubation (4° C.), the bound [^125 I]NMB was separated from the free by rapid filtration through GF/B filters which had been previously soaked in 0.3% polyethyleneimine. The filters were then washed three times with 5 ml aliquots of ice-cold Buffer A. Specific binding was defined as the total [125I] NMB bound minus that bound in the presence of 1 μM unlabeled NMB.

GRP receptor = GRP receptor (Rattus norvegicus, UniProt P52500); experiment: biochemical
Chain of GRP receptor (P52500 whole entry): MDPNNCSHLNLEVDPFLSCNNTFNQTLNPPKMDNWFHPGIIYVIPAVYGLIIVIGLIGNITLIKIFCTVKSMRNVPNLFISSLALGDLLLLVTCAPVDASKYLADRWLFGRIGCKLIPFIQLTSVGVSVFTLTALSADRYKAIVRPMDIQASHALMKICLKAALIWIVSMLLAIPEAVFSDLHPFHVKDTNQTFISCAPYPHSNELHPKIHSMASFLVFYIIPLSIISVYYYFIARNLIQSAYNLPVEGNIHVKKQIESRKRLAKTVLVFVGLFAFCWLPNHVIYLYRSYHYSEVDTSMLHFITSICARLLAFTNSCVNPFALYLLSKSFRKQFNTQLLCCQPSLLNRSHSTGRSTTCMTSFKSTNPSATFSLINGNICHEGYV
Procedure: Membranes of the GRP receptor used in the binding assay were obtained by homogenizing cultured AR42J cells (Polytron, setting 6, 15 sec) in ice-cold 50 mM Tris-HC1 (Buffer A) and centrifuging twice as 39,000 x g (10 min), with an intermediate resuspension in fresh buffer. The final pellets were resuspended in the 50 mM Tris-HCl, containing 0.1 mg/ml bacitracin, and 0.1% BSA (Buffer B), and held on ice for the receptor binding assay. […] The experiment was performed with BIM-26336, […], GRP, and NMB as competing peptides.

human NMB receptor = molecular target: T1, human NMB receptor (Homo sapiens, UniProt P28336); experiment: Calcium uptake functional assay in xenopus oocytes expressing the human NMB receptor (aequorin luminometry); assay type: cell-based; settings: xenopus oocytes coinjected with NMB receptor RNA and aequorin
T1 construct: expressed in transfected cells; host or cells: Xenopus oocytes injected with NMB receptor RNA and aequorin
T1 sequence (P28336 whole entry): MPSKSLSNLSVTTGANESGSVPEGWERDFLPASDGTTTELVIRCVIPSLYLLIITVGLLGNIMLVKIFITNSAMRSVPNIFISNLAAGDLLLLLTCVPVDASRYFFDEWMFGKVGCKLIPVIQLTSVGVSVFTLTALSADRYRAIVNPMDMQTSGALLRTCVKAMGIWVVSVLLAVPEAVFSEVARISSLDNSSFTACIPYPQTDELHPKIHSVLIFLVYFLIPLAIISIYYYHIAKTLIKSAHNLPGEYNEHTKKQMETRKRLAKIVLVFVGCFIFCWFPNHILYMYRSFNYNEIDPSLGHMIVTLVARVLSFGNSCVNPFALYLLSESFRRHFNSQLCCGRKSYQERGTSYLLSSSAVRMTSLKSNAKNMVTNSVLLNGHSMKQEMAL
Procedure: (§1) The ability of BIM-26336 and BIM-26337 to activate both the GRP and NMB receptors were analyzed using a calcium uptake functional assay.
Xenopus oocytes, a frog egg naturally deprived of any receptors, were coinjected with both NMB receptor RNA and calcium photoprotein aequorin. The ability of SAP bombesins to induce change in intracellular calcium levels within the cells were measured luminometrically. See Spindel, et al., Recent Progress in Hormone Research 48:365 (1993); Corjay, et al., J. Biol. Chem. 266:18771 (1991); and Giladi et al., BioTechniques 10:744 (1991), all of which are hereby incorporated by reference.
(§2) The ability of bombesin, NMB, SAP bombesin-14, and SAP bombesin-10 to agonize the receptor was tested.

human GRP receptor = molecular target: T2, human GRP receptor (Homo sapiens, UniProt P30550); experiment: Calcium uptake functional assay in xenopus oocytes expressing the human GRP receptor (aequorin luminometry); assay type: cell-based; settings: xenopus oocytes coinjected with GRP receptor RNA and aequorin
T2 construct: expressed in transfected cells; host or cells: Xenopus oocytes injected with GRP receptor RNA and aequorin
T2 sequence (P30550 whole entry): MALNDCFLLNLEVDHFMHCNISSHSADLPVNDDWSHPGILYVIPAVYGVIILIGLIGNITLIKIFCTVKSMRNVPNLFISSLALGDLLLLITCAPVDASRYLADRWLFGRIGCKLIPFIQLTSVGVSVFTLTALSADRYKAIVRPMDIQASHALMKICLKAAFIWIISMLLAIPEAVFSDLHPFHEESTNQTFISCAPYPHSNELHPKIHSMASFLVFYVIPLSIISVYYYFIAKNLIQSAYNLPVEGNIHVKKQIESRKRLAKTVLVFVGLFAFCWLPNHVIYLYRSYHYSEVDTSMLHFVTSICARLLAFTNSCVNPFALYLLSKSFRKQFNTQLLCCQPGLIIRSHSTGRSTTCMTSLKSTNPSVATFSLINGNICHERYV
Procedure: as §1
Xenopus oocytes were coinjected with both GRP receptor RNA and calcium photoprotein aequorin. The ability of SAP bombesins to induce change in intracellular calcium levels within the cells can be measured luminometrically.
as §2

[1] = system: Swiss 3T3/1R mouse embryo fibroblast cells; experiment: Thymidine uptake assay in Swiss 3T3 cells; assay type: cell-based; settings: 24 h
Procedure: Swiss 3T3/1R mouse embryo fibroblast cells were plated in 24 well tissue culture plates at a density of 2×10^4 cells in 1 ml of Dublbecco's modified eagles medium (DMEM) supplemented with 40 mM glutamine (Gln) in 10% fetal bovine serum. Cells were incubated 3 or 4 days at […] in a humidified atmosphere at 95% air/5% CO2 before replacing the growth medium with DMEM/Gln and 250 μg/ml gentamicin. On the following day, 1 μCi thymidine was added to all wells, and activity was addressed by addition of test peptides alone or in the presence on 3 nM bombesin, respectively. After 24 h, the cells were rinsed with icecold isotonic saline and treated with ice-cold 5% trichloroacetic acid for 30 min. Cells were then rinsed with 95% ethanol and incubated with 0.1 N NaOH overnight at room temperature. One ml aliquots of neutralized samples were counted in a Packard Tri-Carb liquid scintillation analyzer. Test sample activity was measured in 2 independent experiments performed in quadruplicate.
This experiment was performed using 5 test samples: (1) bombesin (3 nM); (2) BIM-26336; (3) BIM-26337; (4) bombesin (3 nM) and BIM-26336; and (5) bombesin (3 nM)+BIM-26337. The results of these experiments are depicted on FIG. 6, wherein the x-axis depicts concentration of the respective SAP bombesin and the y-axis depicts disintegration per minute.

Chain of NMB receptor (P24053 whole entry): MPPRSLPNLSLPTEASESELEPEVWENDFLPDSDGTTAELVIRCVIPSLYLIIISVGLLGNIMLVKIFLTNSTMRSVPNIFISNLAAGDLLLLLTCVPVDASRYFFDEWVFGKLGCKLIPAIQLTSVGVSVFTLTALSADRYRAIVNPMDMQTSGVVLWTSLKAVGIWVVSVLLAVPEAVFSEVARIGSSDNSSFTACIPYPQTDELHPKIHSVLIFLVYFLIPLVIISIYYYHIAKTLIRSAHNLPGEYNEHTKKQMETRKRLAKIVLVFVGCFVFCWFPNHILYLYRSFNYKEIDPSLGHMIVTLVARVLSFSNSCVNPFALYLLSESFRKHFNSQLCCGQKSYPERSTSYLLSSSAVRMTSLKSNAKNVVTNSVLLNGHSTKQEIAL

Compound	Ki (NMB receptor) [nM]	Ki (GRP receptor) [nM]	binding selectivity between GRP and NMB receptors (GRP receptor; comparison of Ki at NMB and GRP receptors)	potency at the NMB receptor (intracellular calcium, relative to NMB) (human NMB receptor)	potency at the GRP receptor (intracellular calcium) (human GRP receptor)	thymidine uptake, peptide with bombesin ([1]; in the presence of 3 nM bombesin)	thymidine uptake, peptide alone ([1]; test peptide alone)
GNQWARGHFM-NH2 [BIM-26336, Gly-Asn-Gln-Trp-Ala-Arg-Gly-His-Phe-Met-NH2]	15.1	6.6					
CSCC[C@H](NC(=O)[C@H](Cc1ccccc1)NC(=O)[C@H](Cc1c[nH]cn1)NC(=O)CNC(=O)[C@H](CCCNC(=N)N)NC(=O)[C@H](C)NC(=O)[C@H](Cc1c[nH]c2ccccc12)NC(=O)[C@H](CCC(N)=O)NC(=O)[C@H](CC(N)=O)NC(=O)CNC(=O)[C@H](CC(C)C)NC(=O)[C@H](CO)NC(=O)[C@H](CCC(N)=O)NC(=O)[C@@H]1CCC(=O)N1)C(N)=O [BIM-26337, H-pGlu-Gln-Ser-Leu-Gly-Asn-Gln-Trp-Ala-Arg-Gly-His-Phe-Met-NH2] ([pGlu]QSLGNQWARGHFM-NH2)	610	6.4	more selective binding of GRP than NMB receptors	approximately two log units less than that of NMB	significantly greater potency than SAP bombesin-10	substantially enhanced	induce thymidine uptake
